One assay addresses T1, thrombin (Homo sapiens, UniProt P00734).
T1 construct: from tissue; host or cells: human plasma
Nature of the assay: Inhibition of thrombin (THR). The format is biochemical. The settings on record: pH 8.6, 10 minute preincubation, 22° C. As to the method: (§1) HLE, CTG, PPE and CTD were tested at 30° C. and the others were
(§2) TRY, trypsin; THR, thrombin; PTH, plasmin; CTC, cathepsin C; ATM,
Enzyme: Purified thrombin from human plasma
Substrate: Tosyl-glycyl-L-prolyl-L-arginine-p-NA acetate
Reaction mixture: 50 mM Tricine-NaOH buffer (pH 8.6), 500 mM NaCl, 0.1% Polyethyleneglycol 8000, 10% DMSO, 0.5 mM Substrate.
(§3) Except for Cathepsin D, the enzyme activities were determined by monitoring the increase in absorbance at 410 nm caused by the hydrolysis of chromogenic substrates. The activity of Cathepsin D was determined by monitoring the absorbance of 5% trichloroacetic acid-soluble material at 280 nm.
(§4) Inhibition of enzymes by the compounds described were determined after a 10 minute preincubation with enzymes in reaction mixtures minus substrate. Reactions were initiated by the addition of substrates. The concentration used for assays were porcine pancreatic elastase at 240 nM and human Cathepsin G at 50 nM. Cathepsin D was used at the concentration that produced approximately 0.15 O.D. increase per 20 min at 280 nm under the standard conditions. All other proteases were assayed at the concentrations that produced approximately 0.1 O.D. change per minute at 410 nm under the standard conditions.

The target in a further assay is T2, cathepsin D (Bos taurus, UniProt P80209).
T2 construct: from tissue; host or cells: bovine spleen
T2 sequence (P80209 45-390): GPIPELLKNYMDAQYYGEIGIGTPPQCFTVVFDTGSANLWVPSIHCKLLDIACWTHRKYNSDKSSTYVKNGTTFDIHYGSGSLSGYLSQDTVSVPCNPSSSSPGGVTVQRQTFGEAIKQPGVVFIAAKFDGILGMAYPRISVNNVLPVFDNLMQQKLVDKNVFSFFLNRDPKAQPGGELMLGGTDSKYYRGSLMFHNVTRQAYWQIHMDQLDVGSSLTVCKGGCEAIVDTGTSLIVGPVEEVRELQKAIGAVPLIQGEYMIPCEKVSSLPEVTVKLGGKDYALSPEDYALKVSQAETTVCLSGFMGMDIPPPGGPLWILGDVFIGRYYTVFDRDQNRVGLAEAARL
Nature of the assay: Inhibition of cathepsin D (CTD). It counts as biochemical, bovine. The settings on record: cathepsin D, pH 3.2, 10 minute preincubation, 30° C.; read-out: IC50 CTD. As to the method:
as §4, with “Except for Cathepsin D, the enzyme activities were determined by monitoring the increase in absorbance at 410 nm caused by the hydrolysis of chromogenic substrates. The activity of Cathepsin D was determined by monitoring the absorbance of 5% trichloroacetic acid-soluble material at 280 nm. Inhibition” for “Inhibition”, “The concentration used for assays were porcine pancreatic elastase at 240 nM and human Cathepsin G at 50 nM.” left out

The target of another assay is T3, plasmin (Homo sapiens, UniProt P00747).
T3 construct: from tissue; host or cells: human plasma
T3 sequence (P00747 581-810 limits assumed): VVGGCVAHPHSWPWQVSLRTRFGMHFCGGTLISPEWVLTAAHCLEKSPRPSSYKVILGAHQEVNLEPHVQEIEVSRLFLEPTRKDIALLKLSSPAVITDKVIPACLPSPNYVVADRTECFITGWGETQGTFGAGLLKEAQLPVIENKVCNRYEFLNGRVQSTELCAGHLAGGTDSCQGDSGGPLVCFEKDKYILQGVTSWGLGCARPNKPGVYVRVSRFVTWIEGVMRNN
T3 sequence (P00747 97-580 partner limits assumed): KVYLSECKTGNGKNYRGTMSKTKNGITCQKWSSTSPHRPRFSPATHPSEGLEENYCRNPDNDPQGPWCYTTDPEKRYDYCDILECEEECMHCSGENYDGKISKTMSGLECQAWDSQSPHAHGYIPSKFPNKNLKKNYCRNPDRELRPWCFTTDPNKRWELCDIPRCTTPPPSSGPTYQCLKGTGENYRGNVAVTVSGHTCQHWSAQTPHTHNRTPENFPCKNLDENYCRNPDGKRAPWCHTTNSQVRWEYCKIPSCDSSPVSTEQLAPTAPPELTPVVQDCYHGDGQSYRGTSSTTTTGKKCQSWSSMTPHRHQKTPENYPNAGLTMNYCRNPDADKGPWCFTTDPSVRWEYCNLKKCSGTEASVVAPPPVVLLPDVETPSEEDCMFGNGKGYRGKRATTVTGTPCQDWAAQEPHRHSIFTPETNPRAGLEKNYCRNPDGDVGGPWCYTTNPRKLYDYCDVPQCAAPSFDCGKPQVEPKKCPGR
Nature of the assay: Inhibition of plasmin (PTH). It counts as biochemical. The settings on record: pH 8.9, 10 minute preincubation, 22° C. The procedure: as §1, §2
Enzyme: Purified plasmin from human plasma Substrate: Tosyl-glyclyl-L-prolyl-L-lysine-pNA acetate
Reaction mixture: 50 mM Tris-HCl buffer (pH 8.9), 500 mM NaCl, 5% DMSO, 0.5 mM Substrate.
as §3, §4

The target of a further assay is T4, cathepsin G (Homo sapiens, UniProt P08311).
T4 construct: from tissue; host or cells: human white blood cells
T4 sequence (P08311 21-244 limits assumed): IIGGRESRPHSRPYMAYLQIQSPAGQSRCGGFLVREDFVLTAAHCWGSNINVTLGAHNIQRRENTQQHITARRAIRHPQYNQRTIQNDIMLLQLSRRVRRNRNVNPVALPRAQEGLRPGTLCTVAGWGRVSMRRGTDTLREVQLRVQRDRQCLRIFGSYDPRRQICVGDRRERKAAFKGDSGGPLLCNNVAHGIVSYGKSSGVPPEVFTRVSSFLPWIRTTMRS
Nature of the assay: Inhibition of cathepsin G (CTG). The format is biochemical.

Setting [1] is: cathepsin G 50 nM, pH 7.5, 10 minute preincubation, 30° C., read-out: IC50 CTG (converted).

Consider 12 molecules from US5264429A, “2-spirocyclopropyl cephalosporin sulfone derivatives” (SynPhar Laboratories, Inc., priority 1991, dated 1993).

Read-outs that look alike come from different tables or passages of the source. Some results are limits rather than exact numbers.

Protocol for cathepsin G: Enzyme: Purified Cathepsin G from human white blood cells
Substrate: N-succinyl-L-alanyl-L-alanyl-L-phenylalanyl-L-phenylalanine -p-NA.
Reaction mixture: 10 mM Phosphate buffer (pH 7.5), 500 mM NaCl, 10% DMSO, 2.0 mM Substrate.

A word on the IC50: it is the concentration needed to halve the response being measured. `CC1=C(C(=O)OC(c2ccccc2)c2ccccc2)N2C(=O)[C@H](Cl)[C@H]2S(=O)(=O)C12CC2(c1ccccc1)c1ccccc1` (single isomer, unassigned) [Example 1, Benzhydryl 7α-chloro-2-spiro(2',2'-diphenyl) cyclopropyl-3-methyl-3-cephem-4-carboxylate-1,1-dioxide]: the 50% inhibitory concentration (IC50) on thrombin was over 40 µM; on cathepsin D, over 50 µM; against plasmin it was 3.61 µM; at cathepsin G (setting [1]), 20 µM.
Regarding `CC1=C(C(=O)N2CCCC2)N2C(=O)[C@H](Br)[C@H]2S(=O)(=O)C12CC2(c1ccccc1)c1ccccc1` (stereo partly drawn) [Example 6, 7α Bromo-2-spiro(2',2'-diphenyl)cyclopropyl-3-methyl-3-cephem-4-pyrrolidine carboxamide-1,1-dioxide], the IC50 is over 39 µM on thrombin, over 9.77 µM at cathepsin D, over 39 µM against plasmin and over 39 µM at cathepsin G (setting [1]).
As to `CC1=C(C(=O)OC(c2ccccc2)c2ccccc2)N2C(=O)[C@H](Br)[C@H]2S(=O)(=O)C12CC2(c1ccccc1)c1ccccc1` (single isomer, unassigned) [Example 2, benzhydryl 7α-bromo-2-spiro(2', 2'-diphenyl) cyclopropyl-3-methyl-3-cephem-4-carboxylate-1,1-dioxide], the IC50 on thrombin is over 40 µM; on cathepsin D it was over 50 µM; at plasmin it was 3.21 µM; on cathepsin G (setting [1]) it was over 16.2 µM.
For the molecule `CO[C@H]1C(=O)N2C(C(=O)OC(c3ccccc3)c3ccccc3)=C(C)C3(CC3(c3ccccc3)c3ccccc3)S(=O)(=O)[C@H]12` (stereo partly drawn) [Example 9, Benzhydryl 7α-methoxy-2-spiro (2',2'-diphenyl) cyclopropyl-3-methyl-3-cephem-4-carboxylate-1,1-dioxide], the IC50 was over 10 µM on thrombin, over 8.35 µM at cathepsin D, 8.8 µM against plasmin and over 10 µM at cathepsin G (setting [1]).
In the case of `CC1=C(C(=O)OC(c2ccccc2)c2ccccc2)N2C(=O)[C@H](Br)[C@H]2S(=O)(=O)C12CC2(c1ccc(F)cc1)c1ccc(F)cc1` (single isomer, unassigned) [Example 13, Benzhydryl 7α-bromo-2-spiro[2',2'-(4',4'-difluoro)diphenyl] cyclopropyl-3-methyl-3-cephem-4-carboxylate-1,1-dioxide], the IC50 was over 40 µM at thrombin, over 50 µM at cathepsin D, 3.19 µM against plasmin and 19 µM on cathepsin G (setting [1]).
With `CCOC(=O)C1CC12C(C)=C(C(=O)OC(c1ccccc1)c1ccccc1)N1C(=O)[C@H](Br)[C@H]1S2(=O)=O` (stereo partly drawn) [Example 13 (1), Benzhydryl 7α-bromo-2-spiro(2'-ethoxycarbonyl)cyclopropyl-3-methyl-3-cephem-4-carboxylate-1,1-dioxide], the half-maximal inhibitory concentration (IC50) is over 40 µM on thrombin, over 50 µM on cathepsin D, 11 µM on plasmin and 13 µM at cathepsin G (setting [1]).
As for `CO[C@H]1C(=O)N2C(C(=O)N3CCCC3)=C(C)C3(CC3(c3ccccc3)c3ccccc3)S(=O)(=O)[C@H]12` (stereo partly drawn) [Example 10, 7α-Methoxy-2-spiro (2',2'-diphenyl)cyclopropyl-3-methyl-3-cephem-4-pyrrolidine carboxamide-1,1-dioxide], the IC50 at thrombin is over 40 µM; at cathepsin D it was over 9.97 µM; against plasmin it was over 40 µM; at cathepsin G (setting [1]) it was over 30.9 µM.
Take `CO[C@H]1C(=O)N2C(C(=O)OCC(Cl)(Cl)Cl)=C(C)C3(CC3(c3ccccc3)c3ccccc3)S(=O)(=O)[C@H]12` (stereo partly drawn) [Example 8, 2,2,2-Trichloroethyl-7α-methoxy-2-spiro(2',2'-diphenyl) cyclopropyl-3-methyl-3-cephem-4-carboxylate-1,1-dioxide]: the IC50 against thrombin is over 9.98 µM; at cathepsin D, over 9.98 µM; at plasmin it was 1.3 µM; at cathepsin G (setting [1]), 0.403 µM.
In the case of `CC1=C(C(=O)OC(c2ccccc2)c2ccccc2)N2C(=O)[C@H](Br)[C@H]2S(=O)(=O)C12CC2(C)c1ccccc1` (stereo partly drawn) [Example 13 (2), Benzhydryl 7α-bromo-2-spiro(2'-phenyl-2'-methyl) cyclopropyl-3-methyl-3-cephem-4-carboxylate-1,1-dioxide], the IC50 is over 40 µM against thrombin, over 46.6 µM on cathepsin D, 5.5 µM against plasmin and 40 µM at cathepsin G.
Consider `CC1=C(C(=O)OC(C)(C)C)N2C(=O)[C@H](Br)[C@H]2S(=O)(=O)C12CC2(c1ccccc1)c1ccccc1` (stereo partly drawn) [Example 3, t-Butyl 7α-bromo-2-spiro(2',2'-diphenyl) cyclopropyl-3-methyl-3-cephem 4-carboxylate-1,1-dioxide], for which the IC50 was over 41.9 µM on thrombin, over 50 µM at cathepsin D, 5.51 µM against plasmin and 40 µM at cathepsin G (setting [1]).
Take `CC1=C(C(=O)OC(c2ccccc2)c2ccccc2)N2C(=O)[C@H](Br)[C@H]2S(=O)(=O)C12CC2(c1ccc(Cl)cc1)c1ccc(Cl)cc1` (single isomer, unassigned) [Example 12, Benzhydryl 7α-bromo-2-spiro [2',2'-(4',4'-dichloro)diphenyl]cyclopropyl-3-methyl-3-cephem-4-carboxylate-1,1-dioxide]: the IC50 on thrombin was over 55.3 µM; on cathepsin D, over 46.2 µM; on plasmin, 2.21 µM; at cathepsin G (setting [1]) it was 19.4 µM.
For the molecule `CCO[C@H]1C(=O)N2C(C(=O)OCC(Cl)(Cl)Cl)=C(C)C3(CC3(c3ccccc3)c3ccccc3)S(=O)(=O)[C@H]12` (stereo partly drawn) [Example 7, 2,2,2-Trichloroethyl-7α-ethoxy-2-spiro(2',2'-diphenyl)cyclo-propyl-3-methyl-3-cephem-4-carboxylate-1,1-dioxide], the IC50 was over 10 µM on thrombin, over 10 µM at cathepsin D, over 10 µM against plasmin and 0.32 µM on cathepsin G (setting [1]).
